# Results reported in US20080234236A1, “REDUCTION OF ADVERSE EVENTS AFTER PERCUTANEOUS INTERVENTION BY USE OF A THROMBIN RECEPTOR ANTAGONIST” (priority 2007, published 2008).
# “And” between values parts separate entries of the source, which are not always exact repeats. Identical values can stand only once.
# What was measured:
# [1] = Monkey bleeding liability study: surgical blood loss from femoral incision site; format: in vivo, cynomolgus monkeys; details: anesthetized monkeys, single oral dose (SCH 530348 1 mg/kg, ASA 10 mg/kg, clopidogrel 2 mg/kg), mean ± SEM
# Experimental: Any novel antiplatelet agent should optimally avoid incremental bleeding risk relative to the current standard of care. The bleeding risk of SCH 530348 was evaluated in anesthetized cynomoigus monkeys in which SCH 530348 was administered alone and along with aspirin and clopidogrel. Bleeding assessment was conducted following administration of single doses of SCH 530348 (1 mg/kg) and/or aspirin (10 mg/kg, ASA) and clopidogrel (2 mg/kg). Four groups of monkeys were dosed orally with either vehicle (the medium used to dissolve the drug, 0.4% methylcellulose) or drug (n=5-6/group): Group I: vehicle, Group II: SCH 530348 (1 mg/kg), Group III ASA (10 mg/kg) plus clopidogrel (2 mg/kg) and Group IV: combination of SCH 530348, ASA plus clopidogrel. Doses of various drugs used inhibited their respective platelet pathways by >90% as assessed by ex-vivo platelet aggregation in whole blood. Two hours after dosing, animals were anesthetized and bleeding risk was assessed by forearm template bleeding time and surgical blood loss from a femoral incision site.
# Surgical blood loss was assessed as follows. The femoral artery and femoral vein on the hind leg of the anesthetized monkey were surgically isolated by cutting with a scalpel blade. […] A small sample was read in a spectrophotometer (at […]) and the volume of blood loss was derived from a standard curve. […]
# platelets [2] = assay: Ex-vivo platelet aggregation in whole blood; set-up: species or system cynomolgus monkeys; details: oral dose of 0.1 mg/kg
# dog Purkinje fibers = format: cell-based
# [3] = Phase 2 study (P03573): bleeding in secondary cohort (medically treated); format: in vivo, humans
# Excerpt: (§1) The behavior of SCH 530348 in humans was further studied in a Phase 2 clinical development program. A key safety issue for SCH 530348 is the potential for incremental bleeding when added to standard of care with other oral antiplatelet therapies as well as parenteral antithrombotics. Therefore, a single Phase 2 study (P03573) was completed to evaluate the safety of SCH 530348 in patients at high risk of bleeding events, i.e., those patients undergoing non-emergent PCI (percutaneous coronary intervention). The goals of this Phase 2 study were to: • Evaluate the safety of SCH 530348 in addition to standard of care with respect to TIMI major and minor bleeding; and, • Observe the effects of SCH 530348 on major adverse cardiac events (“MACE”) in patients successfully completing an interventional procedure.
# The primary endpoint (directed to evaluating safety) was the combined […] (“TIMI”) major and TIMI minor bleeding over sixty days in the primary evaluable cohort. Though the study was not powered to evaluate efficacy, a secondary endpoint (directed to evaluating efficacy) was the incidence of the composite of death and major adverse cardiac events (“MACE”) in the primary cohort. MACE includes myocardial infarction, urgent revascularization, and ischemia requiring hospitalization. Pharmacokinetics and pharmacodynamics were assessed at selected sites across the treatment groups. Other secondary endpoints included the incidence of TIMI major and minor bleeding in the secondary evaluable cohort i.e., those individuals who received the loading dose only.
# The secondary cohort consisted of non-PCI patients who were treated medically (n=382) or underwent CABG (n=75). […] These included two vascular access site and one post-operative (surgical hip replacement) bleed.
# [4] = Phase 2 study (P03573): bleeding in secondary cohort undergoing CABG; format: in vivo, humans; details: for Any bleed, patients (%) / Chest Tube Drainage / TIMI Major/Minor bleeding, patients (%) / Transfusion PRBC, patients (%) / non-TIMI bleeding, patients (%): secondary cohort (CABG treated)
# Excerpt: as §1
# The use of TIMI bleeding classification alone is of limited value and can be misleading in defining bleeding risk in patients undergoing CABG because of the routine use of packed red blood cell (“PRBC”) transfusions to prime the pump and extracorporeal oxygenator, and the resultant decline in hemoglobin that results from the administration of parenteral fluids during surgery. Therefore, other clinically meaningful measures (e.g., chest tube drainage, transfusions, need for re-exploration) were examined.
# platelets [5] = assay: Pharmacodynamic substudy: TRAP induced platelet aggregation (light aggregometry); format: in vivo, humans; details: for Tested population achieving clinically relevant inhibition of platelet aggregation: thirty and sixty days; for Maximum inhibition of TRAP-induced platelet aggregation: 1-2 hours post dose
# Experimental: A pharmacodynamic substudy incorporating light aggregometry was performed under stringent physiologic conditions and read by a central core laboratory. […] The term “therpeutically effective amount of a thrombin receptor antagonist” will be understood to mean that quantity of the thrombin receptor antagonist sufficient to achieve at least 80% inhibition of TRAP mediated platelet aggregation.
# platelets [6] = assay: Platelet activation (expression of P-selectin or CD40 ligand); set-up: species or system humans; details: in vivo
smiles,measurement,setting,value
"CCOC(=O)N[C@@H]1CC[C@@H]2[C@@H](C1)C[C@H]1C(=O)O[C@H](C)[C@H]1[C@H]2/C=C/c1ccc(-c2cccc(F)c2)cn1.O=S(=O)(O)O [SCH 530348, ethyl [(1R,3aR,4aR,6R,8aR,9S,9aS)-9-[(E)-2-[5-(3-fluorophenyl)-2-pyridinyl]ethenyl]-dodecahydro-1-methyl-3-oxonaphtho[2,3-c]furan-6-yl] carbamate bisulfate]",Surgical blood loss,[1],0.18 mL/h
same,Surgical blood loss,[1]; listed as Group II,0.18 ± 0.03 mL/h
same,Inhibition of TRAP-driven platelet aggregation (ex-vivo),platelets [2],100%
same,QT prolongation based on action potential duration,dog Purkinje fibers,no evidence of QT prolongation
same,"Any bleed, patients (%)",[3]; 10 mg loading dose,8%
same,"non-TIMI bleeding, patients (%)",[3]; 10 mg loading dose,8%
same,"Any bleed, patients (%)",[3]; 20 mg loading dose,12 (12%)
same,"TIMI Major/Minor bleeding, patients (%)",[3]; 20 mg loading dose,2 (2%)
same,"TIMI Minor bleeding, patients (%)",[3]; 20 mg loading dose,2 (2%)
same,"non-TIMI bleeding, patients (%)",[3]; 20 mg loading dose,11 (11%)
same,"Any bleed, patients (%)",[3]; 40 mg loading dose,10%
same,"TIMI Major/Minor bleeding, patients (%)",[3]; 40 mg loading dose,1 (1%)
same,"TIMI Minor bleeding, patients (%)",[3]; 40 mg loading dose,1 (1%)
same,"non-TIMI bleeding, patients (%)",[3]; 40 mg loading dose,10%
same,"Any bleed, patients (%)",[3]; All SCH 530348,10%
same,"TIMI Major/Minor bleeding, patients (%)",[3]; All SCH 530348,1%
same,"TIMI Minor bleeding, patients (%)",[3]; All SCH 530348,1%
same,"non-TIMI bleeding, patients (%)",[3]; All SCH 530348,10%
same,"Total chest tube drainage, proportion with >2 units PRBC transfusion, need for re-exploration versus placebo",[4]; patients who underwent CABG,no increase
same,"Any bleed, patients (%)",[4]; 10 mg loading dose,100%
same,Chest Tube Drainage,[4]; 10 mg loading dose,1393 mL
same,"TIMI Major/Minor bleeding, patients (%)",[4]; 10 mg loading dose,90%
same,"Transfusion PRBC, patients (%)",[4]; 10 mg loading dose,80%
same,"non-TIMI bleeding, patients (%)",[4]; 10 mg loading dose,30% and 20%
same,"Any bleed, patients (%)",[4]; 20 mg loading dose,100%
same,Chest Tube Drainage,[4]; 20 mg loading dose,1015 mL
same,"TIMI Major/Minor bleeding, patients (%)",[4]; 20 mg loading dose,94%
same,"Transfusion PRBC, patients (%)",[4]; 20 mg loading dose,50%
same,"non-TIMI bleeding, patients (%)",[4]; 20 mg loading dose,33%
same,"Any bleed, patients (%)",[4]; 40 mg loading dose,100%
same,Chest Tube Drainage,[4]; 40 mg loading dose,870 mL
same,"TIMI Major/Minor bleeding, patients (%)",[4]; 40 mg loading dose,92%
same,"Transfusion PRBC, patients (%)",[4]; 40 mg loading dose,63%
same,"non-TIMI bleeding, patients (%)",[4]; 40 mg loading dose,39%
same,"Any bleed, patients (%)",[4]; All SCH 530348,100%
same,Chest Tube Drainage,[4]; All SCH 530348,988 mL
same,"TIMI Major/Minor bleeding, patients (%)",[4]; All SCH 530348,94% and 92%
same,"Transfusion PRBC, patients (%)",[4]; All SCH 530348,62%
same,"non-TIMI bleeding, patients (%)",[4]; All SCH 530348,35% and 33%
same,Tested population achieving clinically relevant inhibition of platelet aggregation,platelets [5]; 1.0 mg/day maintenance,100%
same,Tested population achieving clinically relevant inhibition of platelet aggregation,platelets [5]; 2.5 mg/day maintenance,100%
same,Maximum inhibition of TRAP-induced platelet aggregation,platelets [5]; 20 mg,> 80%
same,Time to therapeutically effective levels (at least 80%) of platelet inhibition,platelets [5]; 40 mg loading dose,in as little as one hour
same,Tested population with clinically relevant platelet aggregation inhibition within 2 hours,platelets [5]; 40 mg loading dose (only this dose),more than 90%
same,Patients with ≧80% inhibition of TRAP induced platelet aggregation,"platelets [5]; 40 mg loading dose, 1 hour",Approximately 68%
same,Patients with ≧80% inhibition of TRAP induced platelet aggregation,"platelets [5]; 40 mg loading dose, 1.5 hours",~82%
same,Patients with ≧80% inhibition of TRAP induced platelet aggregation,"platelets [5]; 40 mg loading dose, 2 hours",~96%
same,Maximum inhibition of TRAP-induced platelet aggregation,platelets [5]; 40 mg,> 80%
same,Inhibition of platelet aggregation at thirty and sixty days,"platelets [5]; all three maintenance doses (0.5, 1.0, 2.5 mg)",clinically relevant inhibition of platelet aggregation
same,"Inhibition of TRAP-induced platelet aggregation, dose dependency",platelets [5]; in vivo,dose-related inhibition
same,Inhibition of TRAP-induced platelet aggregation,platelets [5]; multiple doses of 1 mg/day,significantly inhibited
same,Inhibition of TRAP-induced platelet aggregation,platelets [5]; single doses as low as 5 mg,significantly inhibited
same,Platelet activation (expression of P-selectin or CD40 ligand),platelets [6],without activating platelets
